Data on 1 substance can be found in PMC11462627, “SAL0114: a novel deuterated dextromethorphan-bupropion combination with improved antidepressant efficacy and safety profile” (Frontiers in Pharmacology, 2024).

Data set [1] concerns the target T1, nAchR α3β4 (Homo sapiens, UniProt P30926+P32297).
T1 construct: host or cells: CHO-K1
Kind of data set: nAchR α3β4 radioligand binding (125I-epibatidine, recombinant CHO-K1 cells). The note with it: 125I-epibatidine competition, human recombinant CHO-K1 cells, mean, n = 2; read-out: Ki, α3β4 nicotinic acetylcholine receptors. As to the method:
The experiments were carried out in the Eurofins Discovery laboratory, and the methods were referenced from previous studies with modifications ([Michelmore et al., 2002]; [Zaveri et al., 2010]). The competitive binding of the samples and ^125I-epibatidine to the nAchR α3β4 in human recombinant CHO-K1 cells was assessed using a radioligand binding method. The ability of the compound to competitively bind to nAchR α3β4 (Ki) was determined by detecting the signal value of the radioligand bound to the receptor.

Data set [2] concerns the target T2, norepinephrine transporter (Homo sapiens, UniProt P23975).
T2 construct: purchased PerkinElmer, Inc RBHNETM400UA
Kind of data set: Norepinephrine transporter (NET) radioligand binding (3H-Nisoxetine). The note with it: 3H-Nisoxetine competition, mean, n = 2; read-out: Ki, norepinephrine transporter. As to the method: The experiments were carried out in the Pharmaron laboratory, and the methods were referenced from previous studies with modifications ([Bylund and Toews, 1993]; [Galli et al., 1995]). Competitive binding of the compound and ^3H-Nisoxetine to NETs was assessed using a radioligand binding method. The ability of the compound to competitively bind to NET (Ki) was determined by detecting the signal value of the radioligand bound to the transporter using a Microbeta instrument (2450, Perkin Elmer, Massachusetts, United States).

Data set [3] deals with ICR mice. Kind of data set: Tail suspension test. The format is in vivo. The note with it: TST, oral, 1 h after administration, deDM 10 and 18 mg/kg, BUP 50 mg/kg, deDM + BUP 10 + 50 and 18 + 50 mg/kg. As to the method: The TST was adapted from the behavioral despair test described by Nguyen et al. ([Nguyen et al., 2017]), with some modifications. […] All compounds were administered orally via gavage at a volume of 10 mL/kg body weight, with the vehicle group receiving an equivalent volume of saline. One hour after administration, mice underwent a tail suspension test (TST). For the TST, each mouse was suspended by its tail, with adhesive tape attached 2 cm from the tail tip and secured to a metal rod. Care was taken to ensure a minimum distance of 15 cm between the suspended animal and the surrounding objects. The test was performed using the ANY-maze version 4.63 video tracking program (Stoelting Co., Wood Dale, IL, United States) for a total duration of 6 min. The initial 2 min served as an acclimatization period and were not scored. The immobility time during the subsequent 4 min was measured using the same software. Immobility was defined as mouse hanging passively and motionless. The ANY-Maze software parameters were set as follows: acclimatization period = 120 s, test duration = 240 s, minimum immobility time = 2 s, and immobility sensitivity = 75%. […]

Data set [4] relates to Sprague-Dawley rats. Kind of data set: Reserpine-induced hypothermia in rats. Format: in vivo. As to conditions: oral, 30 min after treatment. As for the experimental part:
A reserpine-induced hypothermia test was performed according to the method described by Rojas-Corrales et al. ([Rojas-Corrales et al., 2004]; [Dhamija et al., 2017]), with some modifications. 80 male Sprague-Dawley rats were administered an intraperitoneal injection of reserpine (4 mg/kg). 18 h after the injection, rectal temperatures were measured using a rectal probe connected to a thermometer (MC-347, Omron Healthcare, Dalian, China). Rats with body temperatures not exceeding 34.5°C were considered successfully modeled. […] An additional group of ten rats not treated with reserpine served as the normal control. After the group assignment, the second phase of compound administration was initiated. The normal and model control groups received oral saline (10 mL/kg), whereas the other groups received their respective compounds orally at the specified doses, all in an equivalent volume (10 mL/kg). Rectal temperatures were measured 30 min after treatment to assess the effect of compounds in each group on the reserpine-induced hypothermia model. All experimental procedures were conducted in strict accordance with guidelines approved by the Institutional Animal Care and Use Committee of Shenzhen Salubris Pharmaceuticals Co., Ltd. A P value of less than 0.05 was considered statistically significant for comparisons between groups.

Data set [5] deals with C57BL/6J mice. The experiment in a line: Ammonia-induced cough mouse model. The format is in vivo. As to conditions: oral; for cough inhibition rate: 0.5 h post-administration. As to the method:
Antitussive effects were investigated using a classical mouse cough model induced by ammonia liquor, with some modifications ([Jiang et al., 2014]; [Adejayan et al., 2019]). An ammonia-induced cough model in male C57BL/6J mice was used to evaluate the antitussive effects using a two-step approach. The initial screening phase aimed to identify the mice with consistent and pronounced cough responses. Individual mice were exposed to 0.2 mL of 13% ammonium hydroxide solution in 500 mL glass vials. A trained observer measured the latency period and recorded the number of coughs over a 3-min period post-exposure. […] Following a 24-h recovery period, 70 eligible mice were randomly allocated to seven treatment groups (n = 10 per group) for the compound evaluation phase. […] All compounds were administered orally at a volume of 10 mL/kg. At 0.5 h post-administration, each mouse was re-exposed to 0.2 mL of 13% ammonia in a 500 mL glass jar for 1 min. Subsequently, the trained observer recorded the number of coughs over a 3-min period following removal from the jar. […] All experimental procedures were conducted in strict compliance with guidelines approved by the Institutional Animal Care and Use Committee of Shenzhen Salubris Pharmaceuticals Co., Ltd., ensuring adherence to ethical standards in animal research. A P value of less than 0.05 was considered statistically significant for comparisons between groups.

Data set [6] in a line: Pharmacokinetics in beagle dog after oral administration. The format is in vivo. As to conditions: deDM, 14 mg/kg, mean, n=3. An excerpt:
Results expressed as mean, n=3 per group

T2 sequence (P23975 whole entry): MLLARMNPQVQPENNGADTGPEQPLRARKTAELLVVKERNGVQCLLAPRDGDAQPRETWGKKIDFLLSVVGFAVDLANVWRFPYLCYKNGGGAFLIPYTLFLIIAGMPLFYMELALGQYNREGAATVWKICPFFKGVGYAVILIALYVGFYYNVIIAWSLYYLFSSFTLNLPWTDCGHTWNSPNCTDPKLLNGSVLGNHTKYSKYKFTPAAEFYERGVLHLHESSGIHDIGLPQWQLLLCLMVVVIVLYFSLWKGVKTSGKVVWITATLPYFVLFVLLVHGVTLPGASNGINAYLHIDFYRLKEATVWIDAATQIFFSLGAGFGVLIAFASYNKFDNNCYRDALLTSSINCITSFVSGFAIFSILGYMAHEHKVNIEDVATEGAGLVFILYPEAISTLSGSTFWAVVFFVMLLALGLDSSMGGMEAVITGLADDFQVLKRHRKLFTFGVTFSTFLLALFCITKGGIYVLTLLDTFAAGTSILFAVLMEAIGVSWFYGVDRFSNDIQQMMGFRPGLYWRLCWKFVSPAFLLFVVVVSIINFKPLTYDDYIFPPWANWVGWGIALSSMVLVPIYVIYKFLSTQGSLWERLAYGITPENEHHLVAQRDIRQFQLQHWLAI
T1 sequence (P32297 32-505): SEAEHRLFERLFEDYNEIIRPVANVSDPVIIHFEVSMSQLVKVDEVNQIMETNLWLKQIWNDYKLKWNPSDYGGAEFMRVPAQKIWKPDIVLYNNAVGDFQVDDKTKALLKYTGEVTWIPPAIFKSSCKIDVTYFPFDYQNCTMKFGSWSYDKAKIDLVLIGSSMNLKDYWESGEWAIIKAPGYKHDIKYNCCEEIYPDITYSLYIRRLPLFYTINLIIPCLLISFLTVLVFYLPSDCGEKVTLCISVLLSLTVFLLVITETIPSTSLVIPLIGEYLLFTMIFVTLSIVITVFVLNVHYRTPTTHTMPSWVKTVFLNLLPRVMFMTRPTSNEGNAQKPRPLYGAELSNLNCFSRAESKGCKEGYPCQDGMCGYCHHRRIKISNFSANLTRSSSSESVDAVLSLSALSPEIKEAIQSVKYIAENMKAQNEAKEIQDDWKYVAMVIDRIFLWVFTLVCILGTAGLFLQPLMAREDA
T1 sequence (P30926 22-498): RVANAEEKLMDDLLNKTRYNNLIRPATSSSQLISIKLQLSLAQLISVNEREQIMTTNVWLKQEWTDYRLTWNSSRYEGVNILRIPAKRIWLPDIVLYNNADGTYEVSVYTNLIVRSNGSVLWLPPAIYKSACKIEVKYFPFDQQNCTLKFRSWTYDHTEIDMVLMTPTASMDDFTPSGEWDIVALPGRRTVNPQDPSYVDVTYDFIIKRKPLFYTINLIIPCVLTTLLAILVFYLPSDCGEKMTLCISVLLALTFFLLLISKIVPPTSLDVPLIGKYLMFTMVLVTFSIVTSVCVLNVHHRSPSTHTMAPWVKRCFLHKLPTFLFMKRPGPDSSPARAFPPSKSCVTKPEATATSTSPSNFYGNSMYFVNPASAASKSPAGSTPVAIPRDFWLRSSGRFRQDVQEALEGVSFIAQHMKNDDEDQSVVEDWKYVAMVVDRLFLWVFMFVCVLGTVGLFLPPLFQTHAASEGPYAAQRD

Usually Ki stands for the equilibrium dissociation constant of an inhibitor or competing ligand from its target. For deuterated dextromethorphan [deDM], the Ki in data set [1] is 15.8 µM. In addition, the Ki in data set [2] was 17.1 µM. Also, in data set [3], the “immobilization time compared to the vehicle group” value is reported as “did not significantly reduce the immobilization time”. The “body temperature compared with the model (vehicle) group” value in data set [4] (reserpine 4 mg/kg i.p. rats, BUP 40 mg/kg, deDM 5 and 10 mg/kg, deDM + BUP 5 + 40 and 10 + 40 mg/kg) is “increased the body temperature of model animals in a dose-dependent manner”. For the same substance, in data set [4] (reserpine rats, 10 mg/kg), the “body temperature, high dose compared with the model (vehicle) group” value was “reaching a statistically significant difference”. Besides, the “cough inhibition compared with the vehicle group” value in data set [5] (deDM 5 and 10 mg/kg, BUP 40 mg/kg, deDM + BUP 5 + 40 and 10 + 40 mg/kg) is recorded as “neither deDM nor BUP significantly inhibited cough”. In addition, the cough inhibition rate in data set [5] (high dose 10 mg/kg) is 9.1%. For the same substance, in data set [5] (low dose 5 mg/kg), the cough inhibition rate is recorded as 8.3%. In data set [6] (female beagle dog), the “AUC0-last (♀)” value is 153 ng·h/mL and the “Cmax (♀)” value worked out at 60 ng/mL. For the same substance, in data set [6] (male beagle dog), the “AUC0-last (♂)” value came to 383 ng·h/mL and the “Cmax (♂)” value came to 157 ng/mL.
